Drawing on patent publication US20260116920A1, “HUMAN TRANSFERRIN RECEPTOR BINDING PEPTIDE” (PEPTIDREAM INC., priority 2021, published 2026), this text covers Kd for 14 compounds.

Structures are written as SMILES. Positions of bridges follow the written chain, without caps; N, C: chain ends. Non-standard residues stand in square brackets, D forms with d. Residues, ends and D or L forms follow the SMILES beside them. *: point of attachment. Trp(1-CH2COOH) = N[C@@H](Cc1cn(CC(=O)O)c2ccccc12)C(=O)O; Nle(6-morpholino) = N[C@@H](CCCCN1CCOCC1)C(=O)O; Phe(3-COOH) = N[C@@H](Cc1cccc(C(=O)O)c1)C(=O)O; Trp(7-aza) = N[C@@H](Cc1c[nH]c2ncccc12)C(=O)O; NH(CH2CH2O)8Me = COCCOCCOCCOCCOCCOCCOCCOCCN*; NMePhe(3-Cl) = CN[C@@H](Cc1cccc(Cl)c1)C(=O)O; NMeY = CN[C@@H](Cc1ccc(O)cc1)C(=O)O; PEG4 = NCCOCCOCCOCCOCCC(=O)O; Carboxymethyl = O=C(O)C*

T1 sequence (P02786 89-760 limits assumed): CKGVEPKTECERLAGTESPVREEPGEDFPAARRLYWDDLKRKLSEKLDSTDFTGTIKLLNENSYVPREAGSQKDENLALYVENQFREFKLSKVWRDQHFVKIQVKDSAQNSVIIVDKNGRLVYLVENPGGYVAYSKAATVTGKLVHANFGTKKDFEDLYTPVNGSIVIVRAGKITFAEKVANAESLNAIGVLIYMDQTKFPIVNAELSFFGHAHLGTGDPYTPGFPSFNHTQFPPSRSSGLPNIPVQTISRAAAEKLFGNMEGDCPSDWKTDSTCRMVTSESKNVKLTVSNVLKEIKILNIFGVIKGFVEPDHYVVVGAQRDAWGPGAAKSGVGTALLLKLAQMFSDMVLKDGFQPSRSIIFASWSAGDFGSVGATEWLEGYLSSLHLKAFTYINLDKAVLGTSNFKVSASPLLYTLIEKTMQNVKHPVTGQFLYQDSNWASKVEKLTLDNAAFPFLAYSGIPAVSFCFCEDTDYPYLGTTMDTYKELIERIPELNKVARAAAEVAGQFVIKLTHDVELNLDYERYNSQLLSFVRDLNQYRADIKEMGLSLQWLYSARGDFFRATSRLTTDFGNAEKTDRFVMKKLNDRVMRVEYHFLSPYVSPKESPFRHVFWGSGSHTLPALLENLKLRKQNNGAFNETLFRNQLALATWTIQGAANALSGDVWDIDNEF

The first assay concerns the target T1, human transferrin receptor (hTfR) (Homo sapiens, UniProt P02786).
T1 construct: made in house
Briefly: Evaluation of molecular interaction between transferrin receptor (hTfR) and peptide using surface plasmon resonance (SPR). The settings on record: peptide with linker, surface plasmon resonance; read-out: SPR (KD class for binding to hTfR). The class given is binding. Put shortly:
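Recombinant human TfR dimer (0.5 μM) was captured on a Ni-charged NTA chip and amine-coupled with EDC/NHS, then ethanolamine-capped. Peptides at 5–100 nM in HEPES pH 8.0 buffer with 150 mM NaCl, 0.05% Tween 20, 0.1% BSA and 1.0% DMSO were run by single-cycle kinetics; KD came from least-squares curve fitting.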
As for `CC[C@H](C)[C@@H]1NC(=O)[C@H](Cc2ccc(OCC(=O)O)cc2)NC(=O)[C@H](Cc2ccc(O)cc2)NC(=O)[C@H](CC(N)=O)NC(=O)[C@H](Cc2cn(CC(=O)O)c3ccccc23)NC(=O)[C@H](C(C)C)NC(=O)[C@H](Cc2cccc(Cl)c2)N(C)C(=O)[C@H](C(C)C)NC(=O)[C@H](C)NC(=O)CSC[C@@H](C(=O)NCCOCCOCCOCCOCCC(N)=O)NC(=O)[C@H](Cc2ccc(O)cc2)N(C)C(=O)[C@H](Cc2cccc(C(=O)O)c2)NC(=O)[C@H](CCCCN2CCOCC2)NC(=O)[C@H](CCC(N)=O)NC(=O)[C@H]([C@@H](C)CC)NC1=O` [compound 216] ({CH2CO}-AV[NMePhe(3-Cl)]V[Trp(1-CH2COOH)]NYY(Carboxymethyl)IIQ[Nle(6-morpholino)][Phe(3-COOH)][NMeY]C[PEG4]-NH2; thioether N-15), the Kd lay in the range of 1 to 100 nM.
The same measure, in the same setting: the value for `CC[C@H](C)[C@@H]1NC(=O)[C@H](Cc2ccc(OCC(=O)O)cc2)NC(=O)[C@H](Cc2ccc(O)cc2)NC(=O)[C@H](CC(N)=O)NC(=O)[C@H](Cc2cn(CC(=O)O)c3ccccc23)NC(=O)[C@H](C(C)C)NC(=O)[C@H](Cc2cccc(Cl)c2)N(C)C(=O)[C@H](C(C)C)NC(=O)[C@H](C)NC(=O)CSC[C@@H](C(=O)NCCOCCOCCOCCOCCC(N)=O)NC(=O)[C@H](Cc2ccc(O)cc2)N(C)C(=O)[C@H](Cc2cccc(C(=O)O)c2)NC(=O)[C@H](CCCCN2CCOCC2)NC(=O)[C@H](CCC(=O)NCCOCCOCCOCCOCCOCCOCCOCCOC)NC(=O)[C@H]([C@@H](C)CC)NC1=O` [compound 217] ({CH2CO}-AV[NMePhe(3-Cl)]V[Trp(1-CH2COOH)]NYY(Carboxymethyl)IIE(NH(CH2CH2O)8Me)[Nle(6-morpholino)][Phe(3-COOH)][NMeY]C[PEG4]-NH2; thioether N-15) was 1 to 100 nM.

Still in this assay, the particulars now being: surface plasmon resonance, binding to hTfR; KD class symbol; read-out: SPR (KD value).
As for `CC[C@H](C)[C@@H]1NC(=O)[C@H](Cc2ccc(OCC(=O)O)cc2)NC(=O)[C@H](Cc2ccc(O)cc2)NC(=O)[C@H](CC(N)=O)NC(=O)[C@H](Cc2c[nH]c3ncccc23)NC(=O)[C@H](C(C)C)NC(=O)[C@H](Cc2cccc(Cl)c2)N(C)C(=O)[C@H](C(C)C)NC(=O)[C@H](C)NC(=O)CSC[C@@H](C(=O)NCCOCCOCCOCCOCCC(N)=O)NC(=O)[C@H](Cc2ccc(O)cc2)N(C)C(=O)[C@H](Cc2cccc(C(=O)NCCOCCOCCOCCOC)c2)NC(=O)[C@H](CCCNC(=N)N)NC(=O)[C@H](CCC(=O)NCCOCCOCCOCCOC)NC(=O)[C@H]([C@@H](C)CC)NC1=O` [compound 130], the equilibrium dissociation constant (Kd) lay within 1 to 100 nM.
Take `CC[C@H](C)[C@@H]1NC(=O)[C@H](Cc2ccc(OCC(=O)O)cc2)NC(=O)[C@H](Cc2ccc(O)cc2)NC(=O)[C@H](CC(N)=O)NC(=O)[C@H](Cc2c[nH]c3ncccc23)NC(=O)[C@H](C(C)C)NC(=O)[C@H](Cc2cccc(Cl)c2)N(C)C(=O)[C@H](C(C)C)NC(=O)[C@H](C)NC(=O)CSC[C@@H](C(=O)NCCOCCOCCOCCOCCC(N)=O)NC(=O)[C@H](Cc2ccc(C(=O)NCCOCCOCCOCCOC)cc2)N(C)C(=O)[C@H](Cc2cccc(C(=O)NCCOCCOCCOCCOC)c2)NC(=O)[C@H](CCCNC(=N)N)NC(=O)[C@H](CCC(N)=O)NC(=O)[C@H]([C@@H](C)CC)NC1=O` [compound 131]: the Kd was 1 to 100 nM.
Same read-out and setting: as for `CC[C@H](C)[C@@H]1NC(=O)[C@H](Cc2ccc(OCC(=O)O)cc2)NC(=O)[C@H](Cc2ccc(O)cc2)NC(=O)[C@H](CC(N)=O)NC(=O)[C@H](Cc2c[nH]c3ncccc23)NC(=O)[C@H](C(C)C)NC(=O)[C@H](Cc2cccc(Cl)c2)N(C)C(=O)[C@H](C(C)C)NC(=O)[C@H](C)NC(=O)CSC[C@@H](C(=O)NCCOCCOCCOCCOCCC(N)=O)NC(=O)[C@H](Cc2cccc(C(=O)NCCOCCOCCOCCOC)c2)N(C)C(=O)[C@H](Cc2cccc(C(=O)NCCOCCOCCOCCOC)c2)NC(=O)[C@H](CCCNC(=N)N)NC(=O)[C@H](CCC(N)=O)NC(=O)[C@H]([C@@H](C)CC)NC1=O` [compound 132], the figure is 1 to 100 nM.
The same measure, in the same setting: as for `CC[C@H](C)[C@@H]1NC(=O)[C@H](Cc2ccc(OCC(=O)O)cc2)NC(=O)[C@H](Cc2ccc(O)cc2)NC(=O)[C@H](CC(N)=O)NC(=O)[C@H](Cc2c[nH]c3ncccc23)NC(=O)[C@H](C(C)C)NC(=O)[C@H](Cc2cccc(Cl)c2)N(C)C(=O)[C@H](C(C)C)NC(=O)[C@H](C)NC(=O)CSC[C@@H](C(=O)NCCOCCOCCOCCOCCC(N)=O)NC(=O)[C@H](Cc2ccc(O)cc2)N(C)C(=O)[C@H](Cc2ccccc2)NC(=O)[C@H](CCCNC(=N)N)NC(=O)[C@H](CCC(=O)NCCOCCOCCOCCOC)NC(=O)[C@H]([C@@H](C)CC)NC1=O` [compound 133], the figure is 1 to 100 nM; as for `CC[C@H](C)[C@@H]1NC(=O)[C@H](Cc2ccc(OCC(=O)O)cc2)NC(=O)[C@H](Cc2ccc(O)cc2)NC(=O)[C@H](CC(N)=O)NC(=O)[C@H](Cc2cn(CC(=O)O)c3ccccc23)NC(=O)[C@H](C(C)C)NC(=O)[C@H](Cc2cccc(Cl)c2)N(C)C(=O)[C@H](C(C)C)NC(=O)[C@H](C)NC(=O)CSC[C@@H](C(=O)NCCOCCOCCOCCOCCC(N)=O)NC(=O)[C@H](Cc2ccc(O)cc2)N(C)C(=O)[C@H](Cc2ccncc2)NC(=O)[C@H](CCCNC(=N)N)NC(=O)[C@H](CCC(N)=O)NC(=O)[C@H]([C@@H](C)CC)NC1=O` [compound 134], 1 to 100 nM; as for `CC[C@H](C)[C@@H]1NC(=O)[C@H](Cc2ccc(OCC(=O)O)cc2)NC(=O)[C@H](Cc2ccc(O)cc2)NC(=O)[C@H](CC(N)=O)NC(=O)[C@H](Cc2cn(CC(=O)O)c3ccccc23)NC(=O)[C@H](C(C)C)NC(=O)[C@H](Cc2cccc(Cl)c2)N(C)C(=O)[C@H](C(C)C)NC(=O)[C@H](C)NC(=O)CSC[C@@H](C(=O)NCCOCCOCCOCCOCCC(N)=O)NC(=O)[C@H](Cc2ccc(O)cc2)N(C)C(=O)[C@H](Cc2ccncc2)NC(=O)[C@H](CCCCN2CCOCC2)NC(=O)[C@H](CCC(N)=O)NC(=O)[C@H]([C@@H](C)CC)NC1=O` [compound 135], 1 to 100 nM.
On the same count and under the same terms, the value for `CC[C@H](C)[C@@H]1NC(=O)[C@H](Cc2ccc(OCC(=O)O)cc2)NC(=O)[C@H](Cc2ccc(O)cc2)NC(=O)[C@H](CC(N)=O)NC(=O)[C@H](Cc2cn(CC(=O)O)c3ccccc23)NC(=O)[C@H](C(C)C)NC(=O)[C@H](Cc2cccc(Cl)c2)N(C)C(=O)[C@H](C(C)C)NC(=O)[C@H](C)NC(=O)CSC[C@@H](C(=O)NCCOCCOCCOCCOCCC(N)=O)NC(=O)[C@H](Cc2ccc(O)cc2)N(C)C(=O)[C@H](Cc2cccc(C(=O)O)c2)NC(=O)[C@H](CCCNC(=N)N)NC(=O)[C@H](CCC(N)=O)NC(=O)[C@H]([C@@H](C)CC)NC1=O` [compound 136] was 1 to 100 nM.
Take `CC[C@H](C)[C@@H]1NC(=O)[C@H](Cc2ccc(OCC(=O)O)cc2)NC(=O)[C@H](Cc2ccc(O)cc2)NC(=O)[C@H](CC(N)=O)NC(=O)[C@H](Cc2c[nH]c3ncccc23)NC(=O)[C@H](C(C)C)NC(=O)[C@H](Cc2cccc(Cl)c2)N(C)C(=O)[C@H](C(C)C)NC(=O)[C@H](C)NC(=O)CSC[C@@H](C(=O)NCCOCCOCCOCCOCCC(N)=O)NC(=O)[C@H](Cc2ccc(O)cc2)N(C)C(=O)[C@H](Cc2ccncc2)NC(=O)[C@H](CCCNC(=N)N)NC(=O)[C@H](CCC(N)=O)NC(=O)[C@H]([C@@H](C)CC)NC1=O` [compound 137]: the Kd lay within 1 to 100 nM.
Turning to `CC[C@H](C)[C@@H]1NC(=O)[C@H](Cc2ccc(OCC(=O)O)cc2)NC(=O)[C@H](Cc2ccc(O)cc2)NC(=O)[C@H](CC(N)=O)NC(=O)[C@H](Cc2c[nH]c3ncccc23)NC(=O)[C@H](C(C)C)NC(=O)[C@H](Cc2cccc(Cl)c2)N(C)C(=O)[C@H](C(C)C)NC(=O)[C@H](C)NC(=O)CSC[C@@H](C(=O)NCCOCCOCCOCCOCCC(N)=O)NC(=O)[C@H](Cc2ccc(O)cc2)N(C)C(=O)[C@H](Cc2ccncc2)NC(=O)[C@H](CCCCN2CCOCC2)NC(=O)[C@H](CCC(N)=O)NC(=O)[C@H]([C@@H](C)CC)NC1=O` [compound 138], the Kd lay in the range of 1 to 100 nM.
On to `CC[C@H](C)[C@@H]1NC(=O)[C@H](Cc2ccc(OCC(=O)O)cc2)NC(=O)[C@H](Cc2ccc(O)cc2)NC(=O)[C@H](CC(N)=O)NC(=O)[C@H](Cc2c[nH]c3ncccc23)NC(=O)[C@H](C(C)C)NC(=O)[C@H](Cc2cccc(Cl)c2)N(C)C(=O)[C@H](C(C)C)NC(=O)[C@H](C)NC(=O)CSC[C@@H](C(=O)NCCOCCOCCOCCOCCC(N)=O)NC(=O)[C@H](Cc2ccc(O)cc2)N(C)C(=O)[C@H](Cc2ccncc2)NC(=O)[C@H](CCCCN2CCOCC2)NC(=O)[C@H](CCC(=O)NCCOCCOCCOCCOCCOCCOCCOCCOC)NC(=O)[C@H]([C@@H](C)CC)NC1=O` [compound 139], for which the Kd fell in the range of 1 to 100 nM.
Still for that read-out and setting: the value for `CC[C@H](C)[C@@H]1NC(=O)[C@H](Cc2ccc(OCC(=O)O)cc2)NC(=O)[C@H](Cc2ccc(O)cc2)NC(=O)[C@H](CC(N)=O)NC(=O)[C@H](Cc2c[nH]c3ncccc23)NC(=O)[C@H](C(C)C)NC(=O)[C@H](Cc2cccc(Cl)c2)N(C)C(=O)[C@H](C(C)C)NC(=O)[C@H](C)NC(=O)CSC[C@@H](C(=O)NCCOCCOCCOCCOCCC(N)=O)NC(=O)[C@H](Cc2ccc(O)cc2)N(C)C(=O)[C@H](Cc2cccc(C(=O)O)c2)NC(=O)[C@H](CCCCN2CCOCC2)NC(=O)[C@H](CCC(N)=O)NC(=O)[C@H]([C@@H](C)CC)NC1=O` [compound 140] ({CH2CO}-AV[NMePhe(3-Cl)]V[Trp(7-aza)]NYY(Carboxymethyl)IIQ[Nle(6-morpholino)][Phe(3-COOH)][NMeY]C[PEG4]-NH2; thioether N-15) was 1 to 100 nM; that for `CC[C@H](C)[C@@H]1NC(=O)[C@H](Cc2ccc(OCC(=O)O)cc2)NC(=O)[C@H](Cc2ccc(N)nc2)NC(=O)[C@H](CC(N)=O)NC(=O)[C@H](Cc2c[nH]c3ccccc23)NC(=O)[C@H](C(C)C)NC(=O)[C@H](Cc2cccc(Cl)c2)N(C)C(=O)[C@H](C(C)C)NC(=O)[C@H](C)NC(=O)CSC[C@@H](C(=O)NCCOCCOCCOCCOCCC(N)=O)NC(=O)[C@H](Cc2ccc(O)cc2)N(C)C(=O)[C@H](Cc2ccncc2)NC(=O)[C@H](CCCNC(=N)N)NC(=O)[C@H](CCC(=O)NCCOCCOCCOCCOCCOCCOCCOCCOC)NC(=O)[C@H]([C@@H](C)CC)NC1=O` [compound 141] was 100 to 1000 nM.
